Measurements published in patent US20220340633A1 (Adepthera LLC, priority 2016, published 2022).
Entries after “also recorded” stand apart in the source; their conditions may differ. Non-standard residues stand in square brackets, D forms with d. Residues, ends and D or L forms follow the SMILES beside them. *: point of attachment. Palmitoyl = CCCCCCCCCCCCCCCC(=O)*; AEEA = NCCOCCOCC(=O)O

How the values were obtained:
CLR/RAMP3 receptor = CLR/RAMP3 receptor (Homo sapiens, UniProt O60896+Q16602); test: cell-based
Chain of CLR/RAMP3 receptor (Q16602 23-461): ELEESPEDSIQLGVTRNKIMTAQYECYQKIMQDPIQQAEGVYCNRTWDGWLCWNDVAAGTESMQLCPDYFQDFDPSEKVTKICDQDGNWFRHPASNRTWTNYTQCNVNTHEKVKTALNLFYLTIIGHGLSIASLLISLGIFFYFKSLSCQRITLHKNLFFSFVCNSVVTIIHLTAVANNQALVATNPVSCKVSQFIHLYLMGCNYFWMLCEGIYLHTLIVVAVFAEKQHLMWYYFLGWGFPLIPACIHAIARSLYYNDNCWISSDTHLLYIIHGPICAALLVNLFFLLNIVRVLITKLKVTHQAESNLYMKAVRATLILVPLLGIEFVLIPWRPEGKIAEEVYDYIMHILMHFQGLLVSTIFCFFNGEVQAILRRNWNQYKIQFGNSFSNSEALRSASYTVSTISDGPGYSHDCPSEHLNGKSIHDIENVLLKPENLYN
Chain of CLR/RAMP3 receptor (O60896 24-148): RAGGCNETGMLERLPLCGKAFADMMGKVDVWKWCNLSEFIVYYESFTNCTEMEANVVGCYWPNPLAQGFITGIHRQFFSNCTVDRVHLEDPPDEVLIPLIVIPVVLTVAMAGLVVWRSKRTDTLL
Experimental: (§1) Using a receptor activation assay, the dose-dependent stimulatory response of peptide agonists of the present invention on a CLR/RAMP1 receptor, a CLR/RAMP2, or a CLR/RAMP3 receptor complex was determined. A cell line carrying the recombinant CLR/RAMP1, CLR/RAMP2, or a CLR/RAMP3 receptor was employed in the assay. Peptide agonist activities were tested, in duplicate, at 10 different concentrations, starting with 1.0 μM and serially diluted 3-fold, in DMSO. […] The CLR/RAMP1 cAMP, CLR/RAMP2 arrestin assays, and CLR/RAMP3 cAMP (DiscoveRx, Fremont, Calif.) were used.
(§2) For the analysis of antagonistic activity, the synthetic analogs were pre-incubated with the cells before adding the reference ligand at its EC80.

CLR/RAMP1 receptor = CLR/RAMP1 receptor (Homo sapiens, UniProt O60894+Q16602); details: for receptor specificity of antagonist: CLR/RAMP1 versus CLR/RAMP2
Chain of CLR/RAMP1 receptor (Q16602 23-461): as the sequence (Q16602 23-461) above
Chain of CLR/RAMP1 receptor (O60894 27-148): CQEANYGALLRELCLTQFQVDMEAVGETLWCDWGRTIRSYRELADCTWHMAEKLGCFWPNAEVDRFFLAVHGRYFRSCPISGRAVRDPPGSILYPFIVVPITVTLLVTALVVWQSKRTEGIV
Experimental: as §1, §2

[1] = tested on: primary human lymphatic endothelia cells (HLEC); test: HLEC survival in medium with 0.1% FBS, MTS assay; details: 30, 100, and 300 nM, 72 hrs
Experimental: The cells were cultured for 72 hrs, and cell viability was assayed with the MTS assay (Promega).

| Structure (SMILES) | HLEC survival (in words) [1] | further results |
| --- | --- | --- |
| CCCCCCCCCCCCCCCC(=O)NCCCC[C@H](NC(=O)COCCOCCN)C(=O)N[C@H](C(=O)N[C@@H](CCC(N)=O)C(=O)N[C@@H](CCCCN)C(=O)N[C@@H](CC(C)C)C(=O)N[C@@H](C)C(=O)N[C@@H](Cc1c[nH]cn1)C(=O)N[C@@H](CCC(N)=O)C(=O)N[C@H](C(=O)N[C@@H](Cc1ccc(O)cc1)C(=O)N[C@@H](CCC(N)=O)C(=O)N[C@@H](Cc1ccccc1)C(=O)N[C@H](C(=O)N[C@@H](CC(=O)O)C(=O)N[C@@H](CCCCN)C(=O)N[C@@H](CC(=O)O)C(=O)N[C@@H](CCCCN)C(=O)N[C@@H](CC(=O)O)C(=O)N[C@@H](CC(N)=O)C(=O)N[C@@H](CO)C(=O)N[C@@H](C)C(=O)N1CCC[C@H]1C(=O)N[C@H](C(=O)N[C@@H](CC(=O)O)C(=O)N1CCC[C@H]1C(=O)N[C@@H](CO)C(=O)N[C@@H](CO)C(=O)N1CCC[C@H]1C(=O)N[C@@H](Cc1c[nH]cn1)C(=O)N[C@@H](CO)C(=O)N[C@@H](Cc1ccc(O)cc1)C(N)=O)C(C)C)[C@@H](C)O)[C@@H](C)CC)C(C)C [SEQ ID NO: 78] (H-[AEEA]K(Palmitoyl)VQKLAHQIYQFTDKDKDNSAPVDPSSPHSY-NH2) | – | IC50 (CLR/RAMP3 receptor): 0.8 to 9.2 nM |
| CC[C@H](C)[C@H](NC(=O)[C@H](CCC(N)=O)NC(=O)[C@H](Cc1c[nH]cn1)NC(=O)[C@H](C)NC(=O)[C@H](CC(C)C)NC(=O)[C@H](CCCCN)NC(=O)[C@H](CCC(N)=O)NC(=O)[C@@H](NC(=O)[C@@H](NC(C)=O)[C@@H](C)O)C(C)C)C(=O)N[C@@H](Cc1ccc(O)cc1)C(=O)N[C@@H](CCC(N)=O)C(=O)N[C@@H](Cc1ccccc1)C(=O)N[C@H](C(=O)N[C@@H](CC(=O)O)C(=O)N[C@@H](CCCCN)C(=O)N[C@@H](CC(=O)O)C(=O)N[C@@H](CCCCN)C(=O)N[C@@H](CC(=O)O)C(=O)N[C@@H](CC(N)=O)C(=O)N[C@@H](CO)C(=O)N[C@@H](C)C(=O)N1CCC[C@H]1C(=O)N[C@H](C(=O)N[C@@H](CC(=O)O)C(=O)N1CCC[C@H]1C(=O)N[C@@H](CO)C(=O)N[C@@H](CO)C(=O)N1CCC[C@H]1C(=O)N[C@@H](Cc1c[nH]cn1)C(=O)N[C@@H](CO)C(=O)N[C@@H](Cc1ccc(O)cc1)C(N)=O)C(C)C)[C@@H](C)O [SEQ ID NO: 76] | – | antagonistic activity toward CLR/RAMP1 and/or CLR/RAMP2 receptor signaling (in words) (CLR/RAMP1 receptor; statement covers CGRP-stimulated CLR/RAMP1 and ADM-stimulated CLR/RAMP2): mildly improved antagonistic activity |
| CCCCCCCCCCCCCCCC(=O)N[C@@H](CCCCN)C(=O)N[C@H](C(=O)N[C@@H](CCCCN)C(=O)N[C@@H](CCCCN)C(=O)N[C@H](C(=O)N[C@@H](CC(C)C)C(=O)N[C@@H](CCCNC(=N)N)C(=O)N[C@H](C(=O)NCC(=O)N[C@H]1CSSC[C@@H](C(=O)N[C@H](C(=O)N[C@H](C(=O)N[C@@H](CCC(N)=O)C(=O)N[C@@H](CCCCN)C(=O)N[C@@H](CC(C)C)C(=O)N[C@@H](C)C(=O)N[C@@H](Cc2c[nH]cn2)C(=O)N[C@@H](CCC(N)=O)C(=O)N[C@H](C(=O)N[C@@H](Cc2ccc(O)cc2)C(=O)N[C@@H](CCC(N)=O)C(=O)N[C@@H](Cc2ccccc2)C(=O)N[C@H](C(=O)N[C@@H](CC(=O)O)C(=O)N[C@@H](CCCCN)C(=O)N[C@@H](CC(=O)O)C(=O)N[C@@H](CCCCN)C(=O)N[C@@H](CC(=O)O)C(=O)N[C@@H](CC(N)=O)C(=O)N[C@H](C(=O)N[C@@H](C)C(=O)N2CCC[C@H]2C(=O)N[C@H](C(=O)N[C@@H](CC(=O)O)C(=O)N2CCC[C@H]2C(=O)N[C@@H](CO)C(=O)N[C@@H](CO)C(=O)N2CCC[C@H]2C(=O)N[C@@H](Cc2c[nH]cn2)C(=O)N[C@@H](CO)C(=O)N[C@@H](Cc2ccc(O)cc2)C(N)=O)C(C)C)C(C)C)[C@@H](C)O)[C@@H](C)CC)C(C)C)[C@@H](C)O)NC(=O)[C@H]([C@@H](C)O)NC(=O)CNC(=O)[C@H](Cc2ccccc2)NC(=O)[C@H](CCCNC(=N)N)NC1=O)[C@@H](C)O)[C@@H](C)O)[C@@H](C)O [SEQ ID NO: 40] | dose-dependently stimulated; also recorded: significantly promote | – |
| CCCCCCCCCCCCCCCC(=O)NCCCC[C@H](NC(=O)[C@@H](NC(C)=O)[C@@H](C)O)C(=O)N[C@@H](CCCCN)C(=O)N[C@H](C(=O)N[C@@H](CC(C)C)C(=O)N[C@@H](CCCNC(=N)N)C(=O)N[C@H](C(=O)NCC(=O)N[C@H]1CSSC[C@@H](C(=O)N[C@H](C(=O)N[C@H](C(=O)N[C@@H](CCC(N)=O)C(=O)N[C@@H](CCCCN)C(=O)N[C@@H](CC(C)C)C(=O)N[C@@H](C)C(=O)N[C@@H](Cc2c[nH]cn2)C(=O)N[C@@H](CCC(N)=O)C(=O)N[C@H](C(=O)N[C@@H](Cc2ccc(O)cc2)C(=O)N[C@@H](CCC(N)=O)C(=O)N[C@@H](Cc2ccccc2)C(=O)N[C@H](C(=O)N[C@@H](CC(=O)O)C(=O)N[C@@H](CCCCN)C(=O)N[C@@H](CC(=O)O)C(=O)N[C@@H](CCCCN)C(=O)N[C@@H](CC(=O)O)C(=O)N[C@@H](CC(N)=O)C(=O)N[C@@H](CO)C(=O)N[C@@H](C)C(=O)N2CCC[C@H]2C(=O)N[C@H](C(=O)N[C@@H](CC(=O)O)C(=O)N2CCC[C@H]2C(=O)N[C@@H](CO)C(=O)N[C@@H](CO)C(=O)N2CCC[C@H]2C(=O)N[C@@H](Cc2c[nH]cn2)C(=O)N[C@@H](CO)C(=O)N[C@@H](Cc2ccc(O)cc2)C(N)=O)C(C)C)[C@@H](C)O)[C@@H](C)CC)C(C)C)[C@@H](C)O)NC(=O)[C@H]([C@@H](C)O)NC(=O)CNC(=O)[C@H](Cc2ccccc2)NC(=O)[C@H](CCCNC(=N)N)NC1=O)[C@@H](C)O)[C@@H](C)O [SEQ ID NO: 39] | dose-dependently stimulated; also recorded: significantly promote | – |
| CCCCCCCCCCCCCCCC(=O)N[C@@H](CCCCN)C(=O)N[C@H](C(=O)N[C@@H](CCCCN)C(=O)N[C@@H](CCCCN)C(=O)N[C@H](C(=O)N[C@@H](CC(C)C)C(=O)N[C@@H](CCCNC(=N)N)C(=O)N[C@H](C(=O)NCC(=O)N[C@H]1CSSC[C@@H](C(=O)N[C@H](C(=O)N[C@H](C(=O)N[C@@H](CCC(N)=O)C(=O)N[C@@H](CCCCN)C(=O)N[C@@H](CC(C)C)C(=O)N[C@@H](C)C(=O)N[C@@H](Cc2c[nH]cn2)C(=O)N[C@@H](CCC(N)=O)C(=O)N[C@H](C(=O)N[C@@H](Cc2ccc(O)cc2)C(=O)N[C@@H](CCC(N)=O)C(=O)N[C@@H](Cc2ccccc2)C(=O)N[C@H](C(=O)N[C@@H](CC(=O)O)C(=O)N[C@@H](CCCCN)C(=O)N[C@@H](CC(=O)O)C(=O)N[C@@H](CCCCN)C(=O)N[C@@H](CC(=O)O)C(=O)N[C@@H](CC(N)=O)C(=O)N[C@@H](CO)C(=O)N[C@@H](C)C(=O)N2CCC[C@H]2C(=O)N[C@H](C(=O)N[C@@H](CC(=O)O)C(=O)N2CCC[C@H]2C(=O)N[C@@H](CO)C(=O)N[C@@H](CO)C(=O)N2CCC[C@H]2C(=O)N[C@@H](Cc2c[nH]cn2)C(=O)N[C@@H](CO)C(=O)N[C@@H](Cc2ccc(O)cc2)C(N)=O)C(C)C)[C@@H](C)O)[C@@H](C)CC)C(C)C)[C@@H](C)O)NC(=O)[C@H]([C@@H](C)O)NC(=O)CNC(=O)[C@H](Cc2ccccc2)NC(=O)[C@H](CCCNC(=N)N)NC1=O)[C@@H](C)O)[C@@H](C)O)[C@@H](C)O [SEQ ID NO: 38] | dose-dependently stimulated; also recorded: significantly promote | – |
| CCCCCCCCCCCCCCCC(=O)NCCCC[C@H](NC(C)=O)C(=O)NCC(=O)N[C@H]1CSSC[C@@H](C(=O)N[C@H](C(=O)N[C@H](C(=O)N[C@@H](CCC(N)=O)C(=O)N[C@@H](CCCCN)C(=O)N[C@@H](CC(C)C)C(=O)N[C@@H](C)C(=O)N[C@@H](Cc2c[nH]cn2)C(=O)N[C@@H](CCC(N)=O)C(=O)N[C@H](C(=O)N[C@@H](Cc2ccc(O)cc2)C(=O)N[C@@H](CCC(N)=O)C(=O)N[C@@H](Cc2ccccc2)C(=O)N[C@H](C(=O)N2CCC[C@H]2C(=O)N[C@@H](C)C(=O)NCC(=O)N[C@@H](CCCNC(=N)N)C(=O)N[C@@H](CCC(N)=O)C(=O)N[C@@H](CC(=O)O)C(=O)N[C@@H](CO)C(=O)N[C@@H](C)C(=O)N2CCC[C@H]2C(=O)N[C@H](C(=O)N[C@@H](CC(=O)O)C(=O)N2CCC[C@H]2C(=O)N[C@@H](CO)C(=O)N[C@@H](CO)C(=O)N2CCC[C@H]2C(=O)N[C@@H](Cc2c[nH]cn2)C(=O)N[C@@H](CO)C(=O)N[C@@H](Cc2ccc(O)cc2)C(N)=O)C(C)C)[C@@H](C)O)[C@@H](C)CC)C(C)C)[C@@H](C)O)NC(=O)[C@H]([C@@H](C)O)NC(=O)CNC(=O)[C@H](Cc2ccccc2)NC(=O)[C@H](CCCNC(=N)N)NC1=O [SEQ ID NO: 33] | dose-dependently stimulated; also recorded: significantly promote | – |
| CCCCCCCCCCCCCCCC(=O)N[C@@H](CCCCN)C(=O)N[C@H](C(=O)N[C@@H](CCC(N)=O)C(=O)N[C@@H](CCCCN)C(=O)N[C@@H](CC(C)C)C(=O)N[C@@H](C)C(=O)N[C@@H](Cc1c[nH]cn1)C(=O)N[C@@H](CCC(N)=O)C(=O)N[C@H](C(=O)N[C@@H](Cc1ccc(O)cc1)C(=O)N[C@@H](CCC(N)=O)C(=O)N[C@@H](Cc1ccccc1)C(=O)N[C@H](C(=O)N[C@@H](CC(=O)O)C(=O)N[C@@H](CCCCN)C(=O)N[C@@H](CO)C(=O)N[C@@H](C)C(=O)N1CCC[C@H]1C(=O)N[C@H](C(=O)N[C@@H](CC(=O)O)C(=O)N1CCC[C@H]1C(=O)N[C@@H](CO)C(=O)N[C@@H](CO)C(=O)N1CCC[C@H]1C(=O)N[C@@H](Cc1c[nH]cn1)C(=O)N[C@@H](CO)C(=O)N[C@@H](Cc1ccc(O)cc1)C(N)=O)C(C)C)[C@@H](C)O)[C@@H](C)CC)C(C)C [SEQ ID NO: 125] | – | receptor specificity of antagonist (CLR/RAMP1 receptor): pan-specific |
| CCCCCCCCCCCCCCCC(=O)N[C@@H](CCCCN)C(=O)N[C@H](C(=O)N[C@@H](CCC(N)=O)C(=O)N[C@@H](CC(N)=O)C(=O)N[C@@H](CC(C)C)C(=O)N[C@@H](CO)C(=O)N[C@@H](Cc1c[nH]cn1)C(=O)N[C@@H](CCCNC(=N)N)C(=O)N[C@@H](CC(C)C)C(=O)N[C@@H](Cc1c[nH]c2ccccc12)C(=O)N[C@@H](CCC(N)=O)C(=O)N[C@@H](CC(C)C)C(=O)N[C@@H](CCSC)C(=O)NCC(=O)N1CCC[C@H]1C(=O)N[C@@H](C)C(=O)NCC(=O)N[C@@H](CO)C(=O)N[C@@H](C)C(=O)N1CCC[C@H]1C(=O)N[C@H](C(=O)N[C@@H](CC(=O)O)C(=O)N1CCC[C@H]1C(=O)N[C@@H](CO)C(=O)N[C@@H](CO)C(=O)N1CCC[C@H]1C(=O)N[C@@H](Cc1c[nH]cn1)C(=O)N[C@@H](CO)C(=O)N[C@@H](Cc1ccc(O)cc1)C(N)=O)C(C)C)C(C)C [SEQ ID NO: 120] | – | receptor specificity of antagonist (CLR/RAMP1 receptor): CLR/RAMP1-specific |
